Experimental data published in patent US20260042764A1, “COMPOSITIONS AND METHODS FOR INHIBITION OF KRAS” (TheRas, Inc., priority 2022, published 2026).

Assays:
[1] = target: T1, Avi-KRAS WT (1-169) GppNHp/RAF1 RBD-3xFLAG (52-151) (Homo sapiens, UniProt P01116); test: Raf1-KRAS WT-GppNHP disruption HTRF assay (Biological Example 1); type: binding; settings: KRAS WT-GppNHp/RAF1 RBD HTRF
T1 construct: Avi-KRAS WT (1-169)
How it was run: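 HTRF PPI disruption; buffer 50 mM Tris pH 7.5, 100 mM NaCl, 5 mM MgCl2, 0.1% BSA, 0.01% Tween, 10% DMSO. Protein mix 1 h RT shaking, reagent mix 1 h RT shaking. Data as % activity vs DMSO (100%).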

GP2d cells (KRAS G12D) = test: Cell-based pERK HTRF assay in GP2d cell (Biological Example 2); settings: GP2d (KRAS G12D) cells
How it was run: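 Phospho-ERK is measured by HTRF following a 60 min compound exposure at 0.25% DMSO, with a 9-point half-log curve topping at 1 μM or 100 nM.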

[2] = target: T2, Avi-KRAS G12C (2-169) GTP/RAF1 RBD-3xFLAG (51-131) (Homo sapiens, UniProt P01116, G12C); test: Raf1-KRAS G12C-GTP disruption HTRF assay (Biological Example 3); type: binding; settings: KRAS G12C, GTP-loaded
T2 construct: Avi-KRAS G12C (2-169)
How it was run: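 Each KRAS-GTP/RAF1 RBD complex at 50 nM, with 75 nM 3xFLAG-RAF1 RBD (51-131)-Avi, in 50 mM Tris pH 7.5, 100 mM NaCl, 5 mM MgCl2, 0.1% BSA, 0.01% Tween 20, 10% DMSO. Compounds titrated from 30 μM, 10-point 3x series; 1 h at room temperature with shaking. HTRF read, activity as percent of DMSO.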

T2 sequence (P01116 2-169 isoform P01116-2 G12C): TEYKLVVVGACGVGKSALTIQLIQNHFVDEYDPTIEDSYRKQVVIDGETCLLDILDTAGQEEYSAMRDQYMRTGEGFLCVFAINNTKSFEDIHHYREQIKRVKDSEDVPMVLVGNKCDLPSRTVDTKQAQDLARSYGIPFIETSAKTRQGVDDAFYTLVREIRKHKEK
T1 sequence (P01116 1-169 isoform P01116-2): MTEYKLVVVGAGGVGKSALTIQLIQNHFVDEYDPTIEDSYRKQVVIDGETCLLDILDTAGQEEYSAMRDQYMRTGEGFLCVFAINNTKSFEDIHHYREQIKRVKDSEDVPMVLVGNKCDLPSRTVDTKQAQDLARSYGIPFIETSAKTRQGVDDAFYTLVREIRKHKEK

CCN(c1nc(OC[C@@]23CCCN2C[C@H](F)C3)nc2c(F)c(-c3ccc(F)c4sc(N)c(C#N)c34)c(C(F)(F)F)cc12)[C@H]1CCN(C(=O)C(C)C)C1 (atropisomer, axis not shown) [Compound 468]
IC50 [1]: > 10000 nM
IC50 (GP2d cells (KRAS G12D); pERK HTRF): 100 to 1000 nM

CCN(c1nc(OC[C@@]23CCCN2C[C@H](F)C3)nc2c(F)c(-c3ccc(F)c4sc(N)c(C#N)c34)c(C(F)(F)F)cc12)[C@H]1CCS(=O)(=O)C1 (atropisomer, axis not shown) [Compound 492]
IC50 [1]: < 100 nM
IC50 (GP2d cells (KRAS G12D); pERK HTRF): < 100 nM

CN(C)C(=O)[C@@H]1CC[C@@H](N(C)c2nc(OC[C@@]34CCCN3C[C@H](F)C4)nc3c(F)c(-c4ccc(F)c5sc(N)c(C#N)c45)c(C(F)(F)F)cc23)C1 (atropisomer, axis not shown) [Compound 512]
IC50 [1]: 100 to 1000 nM
IC50 [2]: 100 to 1000 nM
IC50 (GP2d cells (KRAS G12D); GP2d): < 100 nM
IC50 (GP2d cells (KRAS G12D); GP2d, pERK HTRF): < 100 nM

CCN(c1nc(OC[C@@]23CCCN2C[C@H](F)C3)nc2c(F)c(-c3ccc(F)c4sc(N)c(C#N)c34)c(C(F)(F)F)cc12)[C@H]1C[C@@H]2COC(=O)N2C1 (atropisomer, axis not shown) [Compound 519]
IC50 [1]: < 100 nM
IC50 [2]: 100 to 1000 nM
IC50 (GP2d cells (KRAS G12D); GP2d): < 100 nM
IC50 (GP2d cells (KRAS G12D); GP2d, pERK HTRF): < 100 nM

CCC(=O)N1CC[C@@H](N(CC)c2nc(OC[C@@]34CCCN3C[C@H](F)C4)nc3c(F)c(-c4ccc(F)c5sc(N)c(C#N)c45)c(C(F)(F)F)cc23)[C@H]1C (atropisomer, axis not shown) [Compound 523]
IC50 [1]: < 100 nM
IC50 [2]: ≤ 100 nM
IC50 (GP2d cells (KRAS G12D); pERK HTRF): < 100 nM
IC50 (GP2d cells (KRAS G12D); GP2d): < 100 nM

CCN(c1nc(OC[C@@]23CCCN2C[C@H](F)C3)nc2c(F)c(-c3ccc(F)c4sc(N)c(C#N)c34)c(C(F)(F)F)cc12)[C@@H]1CCN(C(=O)C2CC2)[C@@H]1C (atropisomer, axis not shown) [Compound 524]
IC50 [1]: < 100 nM
IC50 [2]: 100 to 1000 nM
IC50 (GP2d cells (KRAS G12D); pERK HTRF): < 100 nM
IC50 (GP2d cells (KRAS G12D); GP2d): < 100 nM

CCN(c1nc(OC[C@@]23CCCN2C[C@H](F)C3)nc2c(F)c(-c3ccc(F)c4sc(N)c(C#N)c34)c(C(F)(F)F)cc12)[C@@H]1C[C@@H](C)N(C(C)=O)C1 (atropisomer, axis not shown) [Compound 527]
IC50 [1]: 100 to 1000 nM
IC50 [2]: 100 to 1000 nM
IC50 (GP2d cells (KRAS G12D); GP2d): < 100 nM
IC50 (GP2d cells (KRAS G12D); GP2d, pERK HTRF): < 100 nM

CCN(c1nc(OC[C@@]23CCCN2C[C@H](F)C3)nc2c(F)c(-c3ccc(F)c4sc(N)c(C#N)c34)c(C(F)(F)F)cc12)[C@@H]1C[C@H]2CCC(=O)N2C1 (atropisomer, axis not shown) [Compound 532]
IC50 [1]: 100 to 1000 nM
IC50 [2]: 100 to 1000 nM
IC50 (GP2d cells (KRAS G12D); GP2d): < 100 nM
IC50 (GP2d cells (KRAS G12D); GP2d, pERK HTRF): < 100 nM

CCC(=O)N1C[C@H](N(CC)c2nc(OC[C@@]34CCCN3C[C@H](F)C4)nc3c(F)c(-c4ccc(F)c5sc(N)c(C#N)c45)c(C(F)(F)F)cc23)C[C@@H]1C (atropisomer, axis not shown) [Compound 533]
IC50 [1]: 100 to 1000 nM
IC50 [2]: 100 to 1000 nM
IC50 (GP2d cells (KRAS G12D); GP2d): < 100 nM
IC50 (GP2d cells (KRAS G12D); GP2d, pERK HTRF): < 100 nM

CCN(c1nc(OC[C@@]23CCCN2C[C@H](F)C3)nc2c(F)c(-c3ccc(F)c4sc(N)c(C#N)c34)c(C(F)(F)F)cc12)[C@@H]1C[C@H](C)N(C(C)=O)C1 (atropisomer, axis not shown) [Compound 534]
IC50 [1]: 100 to 1000 nM
IC50 [2]: 100 to 1000 nM
IC50 (GP2d cells (KRAS G12D); GP2d): < 100 nM
IC50 (GP2d cells (KRAS G12D); GP2d, pERK HTRF): < 100 nM

CCN(c1nc(OC[C@@]23CCCN2C[C@H](F)C3)nc2c(F)c(-c3ccc(F)c4sc(N)c(C#N)c34)c(C(F)(F)F)cc12)[C@H]1C[C@H](C)N(C(=O)COC)C1 (atropisomer, axis not shown) [Compound 538]
IC50 [1]: < 100 nM
IC50 [2]: ≤ 100 nM
IC50 (GP2d cells (KRAS G12D); GP2d): < 100 nM
IC50 (GP2d cells (KRAS G12D); GP2d, pERK HTRF): < 100 nM

CCN(c1nc(OC[C@@]23CCCN2C[C@H](F)C3)nc2c(F)c(-c3ccc(F)c4sc(N)c(C#N)c34)c(C(F)(F)F)cc12)[C@H]1C[C@H](C)N(C(=O)C2COC2)C1 (atropisomer, axis not shown) [Compound 539]
IC50 [1]: < 100 nM
IC50 [2]: 100 to 1000 nM
IC50 (GP2d cells (KRAS G12D); GP2d): < 100 nM
IC50 (GP2d cells (KRAS G12D); GP2d, pERK HTRF): < 100 nM

CCN(c1nc(OC[C@@]23CCCN2C[C@H](F)C3)nc2c(F)c(-c3ccc(F)c4sc(N)c(C#N)c34)c(C(F)(F)F)cc12)[C@H]1CCN(C(=O)N(C)C)C1 (atropisomer, axis not shown) [Compound 540, (3S)-3-[[7-(2-amino-3-cyano-7-fluoro-benzothiophen-4-yl)-8-fluoro-2-[[(2R,8S)-2-fluoro-1,2,3,5,6,7-hexahydropyrrolizin-8-yl]methoxy]-6-(trifluoromethyl)quinazolin-4-yl]-ethyl-amino]-N,N-dimethyl-pyrrolidine-1-carboxamide]
IC50 [2]: ≤ 100 nM
IC50 (GP2d cells (KRAS G12D); GP2d): < 100 nM

CCN(c1nc(OC[C@@]23CCCN2C[C@H](F)C3)nc2c(F)c(-c3ccc(F)c4sc(N)c(C#N)c34)c(C(F)(F)F)cc12)[C@H]1CCN(C(=O)OC)C1 (atropisomer, axis not shown) [Compound 541, methyl(3S)-3-[[7-(2-amino-3-cyano-7-fluoro-benzothiophen-4-yl)-8-fluoro-2-[[(2R,8S)-2-fluoro-1,2,3,5,6,7-hexahydropyrrolizin-8-yl]methoxy]-6-(trifluoromethyl)quinazolin-4-yl]-ethyl-amino]pyrrolidine-1-carboxylate]
IC50 [1]: < 100 nM
IC50 [2]: ≤ 100 nM
IC50 (GP2d cells (KRAS G12D)): < 100 nM
IC50 (GP2d cells (KRAS G12D); pERK HTRF): < 100 nM

CCN(c1nc(OC[C@@]23CCCN2C[C@H](F)C3)nc2c(F)c(-c3ccc(F)c4sc(N)c(C#N)c34)c(C(F)(F)F)cc12)[C@H]1CCN(C(=O)c2ccon2)C1 (atropisomer, axis not shown) [Compound 554]
IC50 [1]: < 100 nM
IC50 [2]: 100 to 1000 nM
IC50 (GP2d cells (KRAS G12D); GP2d): < 100 nM
IC50 (GP2d cells (KRAS G12D); GP2d, pERK HTRF): < 100 nM

CCN(c1nc(OC[C@@]23CCCN2C[C@H](F)C3)nc2c(F)c(-c3ccc(F)c4sc(N)c(C#N)c34)c(C(F)(F)F)cc12)[C@H]1C[C@H]2COC(=O)N2C1 (atropisomer, axis not shown; (aS)) [Compound 518, 2-amino-4-((S)-4-(ethyl((6S,7aS)-3-oxotetrahydro-1H,3H-pyrrolo[1,2-c]oxazol-6-yl)amino)-8-fluoro-2-(((2R,7aS)-2-fluorotetrahydro-1H-pyrrolizin-7a(5H)-yl)methoxy)-6-(trifluoromethyl)quinazolin-7-yl)-7-fluorobenzo[b]thiophene-3-carbonitrile]
IC50 [1]: < 100 nM
IC50 [2]: ≤ 100 nM
IC50 (GP2d cells (KRAS G12D); GP2d): < 100 nM
IC50 (GP2d cells (KRAS G12D); GP2d, pERK HTRF): < 100 nM

CCN(c1nc(OC[C@@]23CCCN2C[C@H](F)C3)nc2c(F)c(-c3ccc(F)c4sc(N)c(C#N)c34)c(C(F)(F)F)cc12)[C@H]1C[C@H]2CN(C)C(=O)N2C1 (atropisomer, axis not shown; (aS)) [Compound 543, 2-amino-4-((S)-4-(ethyl((6S,7aS)-2-methyl-3-oxohexahydro-1H-pyrrolo[1,2-c]imidazol-6-yl)amino)-8-fluoro-2-(((2R,7aS)-2-fluorotetrahydro-1H-pyrrolizin-7a(5H)-yl)methoxy)-6-(trifluoromethyl)quinazolin-7-yl)-7-fluorobenzo[b]thiophene-3-carbonitrile]
IC50 [1]: < 100 nM
IC50 [2]: ≤ 100 nM
IC50 (GP2d cells (KRAS G12D); GP2d): < 100 nM
IC50 (GP2d cells (KRAS G12D); GP2d, pERK HTRF): < 100 nM

CCN(c1nc(OC[C@@]23CCCN2C[C@H](F)C3)nc2c(F)c(-c3ccc(F)c4sc(N)c(C#N)c34)c(C(F)(F)F)cc12)[C@H]1CCN(C(=O)C(C)C)C1 (single isomer, unassigned) [Compound 469]
IC50 [1]: < 100 nM
IC50 [2]: ≤ 100 nM
IC50 (GP2d cells (KRAS G12D); GP2d): < 100 nM
IC50 (GP2d cells (KRAS G12D); GP2d, pERK HTRF): < 100 nM

CCOC(=O)N1CC[C@H](N(CC)c2nc(OC[C@@]34CCCN3C[C@H](F)C4)nc3c(F)c(-c4ccc(F)c5sc(N)c(C#N)c45)c(C(F)(F)F)cc23)C1 [Compound 467]
IC50 [1]: 100 to 1000 nM
IC50 (GP2d cells (KRAS G12D); GP2d, pERK HTRF): < 100 nM

CCN(c1nc(OC[C@@]23CCCN2C[C@H](F)C3)nc2c(F)c(-c3ccc(F)c4sc(N)c(C#N)c34)c(C(F)(F)F)cc12)[C@H]1C[C@H](C)N(C(=O)C2CC2)C1 [Compound 470]
IC50 [1]: < 100 nM
IC50 (GP2d cells (KRAS G12D); GP2d, pERK HTRF): < 100 nM

Cc1cc2n(n1)CCN(c1nc(OCC34CCCN3CC(F)C4)nc3c(F)c(-c4ccc(F)c5sc(N)c(C#N)c45)c(C(F)(F)F)cc13)C2 (stereo not shown) [Compound 484]
IC50 [1]: 1000 to 10000 nM
IC50 (GP2d cells (KRAS G12D); GP2d, pERK HTRF): < 100 nM

N#Cc1c(N)sc2c(F)ccc(-c3c(C(F)(F)F)cc4c(N5CCn6nc(N7CCOCC7)cc6C5)nc(OC[C@@]56CCCN5C[C@H](F)C6)nc4c3F)c12 [Compound 485]
IC50 [1]: 1000 to 10000 nM
IC50 (GP2d cells (KRAS G12D); GP2d, pERK HTRF): < 100 nM

Cc1c(C(=O)N(C)C)nn2c1CN(c1nc(OC[C@@]34CCCN3C[C@H](F)C4)nc3c(F)c(-c4ccc(F)c5sc(N)c(C#N)c45)c(C(F)(F)F)cc13)CC2 [Compound 501]
IC50 [1]: 100 to 1000 nM
IC50 [2]: 100 to 1000 nM
IC50 (GP2d cells (KRAS G12D); GP2d): < 100 nM
IC50 (GP2d cells (KRAS G12D); GP2d, pERK HTRF): < 100 nM

CCN(c1nc(OC[C@@]23CCCN2C[C@H](F)C3)nc2c(F)c(-c3ccc(F)c4sc(N)c(C#N)c34)c(C(F)(F)F)cc12)[C@@H]1C[C@@H]2CCC(=O)N2C1 [Compound 511]
IC50 [1]: 100 to 1000 nM
IC50 [2]: 1000 to 10000 nM
IC50 (GP2d cells (KRAS G12D); GP2d): < 100 nM
IC50 (GP2d cells (KRAS G12D); GP2d, pERK HTRF): < 100 nM
